Drawing on patent US20050124498A1, “Halobenzyl substituted phenylaceto esters and amides and use thereof for prevention of harmful organisms” (priority 2002, published 2005), this text covers pest or weed control and chromatographic logP for 28 compounds.

The test system of data set [1] is Erysiphe graminis f.sp. hordei. Nature of the data set: Erysiphe test (barley)/protective. The data set is classed as in vivo. Conditions: Blumeria graminis, 168 h, protective, application rate 500 g/ha, evaluation 7 days after inoculation, read-out: efficacy. The procedure:
Erysiphe test (barley)/protective [table] To produce a suitable preparation of active compound, 1 part by weight of active compound is mixed with the stated amounts of solvent and emulsifier, and the concentrate is diluted with water to the desired concentration. To test for protective activity, young plants are sprayed with the preparation of active compound at the stated application rate. After the spray coating has dried on, the plants are dusted with spores of Erysiphe graminis f.sp. hordei. The plants are placed in a greenhouse at a temperature of about 20° C. and a relative atmospheric humidity of about 80% to promote the development of mildew pustules.

A short description of data set [2]: physchem.
In data set [3] the test system is Phytophthora infestans. As to the kind of experiment: whole plant or invertebrate. The data set is classed as in vivo. Conditions: in Solanum lycopersicum, 72 h, read-out: efficacy.
Data set [4] deals with Sphaerotheca fuliginea. As to the kind of experiment: Sphaerotheca test (cucumber)/protective. It is filed as in vivo. Conditions: Podosphaera fuliginea, 168 h, protective, application rate 100 g/ha, evaluation 7 days after inoculation, read-out: efficacy. The procedure: (§1) Sphaerotheca test (cucumber)/protective [table] To produce a suitable preparation of active compound, 1 part by weight of active compound is mixed with the stated amounts of solvent and emulsifier, and the concentrate is diluted with water to the desired concentration. To test for protective activity, young plants are sprayed with the preparation of active compound at the stated application rate. After the spray coating has dried on, the plants are inoculated with an aqueous spore suspension of Sphaerotheca fuliginea. The plants are then placed in a greenhouse at about 23° C. and about 70% relative atmospheric humidity.

In data set [5] the test system is apple scab pathogen Venturia inaequalis. As to the kind of experiment: Venturia test (apple)/protective. The data set is classed as in vivo. The conditions noted are these: 240 h, protective, application rate 100 g/ha, evaluation 10 days after inoculation, read-out: efficacy. The method, then:
Venturia test (apple)/protective […] To produce a suitable preparation of active compound, 1 part by weight of active compound is mixed with the stated amounts of solvent and emulsifier, and the concentrate is diluted with water to the desired concentration. To test for protective activity, young plants are sprayed with the preparation of active compound at the stated application rate. After the spray coating has dried on, the plants are inoculated with an aqueous conidia suspension of the apple scab pathogen Venturia inaequalis and then remain in an incubation cabin at about 20° C. and 100% relative atmospheric humidity for 1 day. The plants are then placed in a greenhouse at about 21° C. and a relative atmospheric humidity of about 90%.

The test system of data set [6] is apple mildew pathogen Podosphaera leucotricha. Nature of the data set: Podosphaera test (apple)/protective. The data set is classed as in vivo. The conditions noted are these: 240 h, protective, application rate 100 g/ha, evaluation 10 days after inoculation, read-out: efficacy. The method, then: as §1, with “Podosphaera” for “Sphaerotheca”, “(apple)/protective” for “(cucumber)/protective”, “the apple mildew pathogen Podosphaera leucotricha.” for “Sphaerotheca fuliginea.”

Data set [7] deals with Leptosphaeria nodorum. Nature of the data set: Leptosphaeria nodorum test (wheat)/protective. The data set is classed as in vivo. The conditions noted are these: Parastagonospora nodorum, 240 h, protective, application rate 500 g/ha, evaluation 10 days after inoculation, read-out: efficacy. The procedure: Leptosphaeria nodorum test (wheat)/protective [table] To produce a suitable preparation of active compound, 1 part by weight of active compound is mixed with the stated amounts of solvent and emulsifier, and the concentrate is diluted with water to the desired concentration. To test for protective activity, young plants are sprayed with the preparation of active compound at the stated application rate. After the spray coating has dried on, the plants are sprayed with a spore suspension of Leptosphaeria nodorum. The plants remain in an incubation cabin at 20° C. and 100% relative atmospheric humidity for 48 hours. The plants are placed in a greenhouse at a temperature of about 15° C. and a relative atmospheric humidity of 80%.

What is called chromatographic logP is lipophilicity estimated from chromatographic retention. Regarding `CO/N=C(/C(=O)OC)c1c(F)cccc1Oc1ccccc1` [Example 3, methyl (2-fluoro-6-phenoxyphenyl)methoxyiminoacetate], the pest or weed control at 500 g/ha in data set [1] is ≥ 98%. Also, the chromatographic logP in data set [2] (pH 2, log P (pH 2)) is 3.24.
As to `CNC(=O)/C(=N/OC)c1c(F)cccc1Oc1ccccc1` [Example 4, 2-(2-fluoro-6-phenoxyphenyl)-2-methoxyimino-N-methylacetamide], the pest or weed control at 500 g/ha in data set [1] was ≥ 98%. Also, in data set [2] (pH 2, log P (pH 2)), the chromatographic logP is 2.56.
In the case of `CNC(=O)/C(=N/OC)c1ccc(F)cc1Oc1ncnc(Oc2ccccc2Cl)c1F` [Example 7, N-methyl-2-{2-[6-(2-chlorophenoxy)-5-fluoropyrimidin-4-yloxy]-4-fluorophenyl}-2-methoxyiminoacetamide], the pest or weed control at 100 g/ha in data set [3] is ≥ 86%; in data set [4] it was ≥ 98%; in data set [5], ≥ 97%. The same compound came in with a chromatographic logP in data set [2] (pH 2, log P (pH 2)) of 3.14.
As for `CO/N=C(/C(=O)OC)c1c(F)cccc1COc1ccccc1C` [Example 8, methyl (2-fluoro-6-o-tolyloxymethylphenyl)methoxyiminoacetate], the values for the pest or weed control at 100 g/ha in data set [6], in data set [4] and in data set [5] were ≥ 82%, ≥ 98% and ≥ 97%, respectively. For the same compound, the pest or weed control at 500 g/ha in data set [1] is ≥ 98%. In data set [2] (pH 2, log P (pH 2)), the chromatographic logP was 3.65.
As to `CNC(=O)/C(=N/OC)c1c(F)cccc1COc1ccccc1C` [Example 9, N-methyl-2-(2-fluoro-6-o-tolyloxymethylphenyl)-2-methoxyiminoacetamide], the pest or weed control at 100 g/ha in data set [6] was ≥ 82%; in data set [3] it was ≥ 86%; in data set [4], ≥ 98%; in data set [5] it was ≥ 97%. In addition, in data set [2] (pH 2, log P (pH 2)), the chromatographic logP was determined as 3.03.
Consider `CNC(=O)/C(=N/OC)c1ccc(F)cc1Oc1ncnc(Oc2cccc(Cl)c2C)c1F` [Example 10], for which the pest or weed control at 500 g/ha in data set [1] is ≥ 98%. The chromatographic logP in data set [2] (logP) came out at 3.62.
Regarding `CO/N=C(/C(=O)OC)c1c(F)cccc1Oc1ncnc(Oc2cccc(Cl)c2Cl)c1F` [Example 12], the pest or weed control at 100 g/ha was ≥ 82% in data set [6], ≥ 86% in data set [3], ≥ 98% in data set [4] and ≥ 97% in data set [5]. Further, the pest or weed control at 500 g/ha in data set [1] is ≥ 98%. Moreover, the chromatographic logP in data set [2] (logP) came out at 4.16.
Consider `CO/N=C(/C(=O)OC)c1c(F)cccc1Oc1ncnc(Oc2ccccc2Cl)c1F` [Example 14], for which the pest or weed control at 100 g/ha in data set [6] is ≥ 82%; in data set [3] it was ≥ 86%; in data set [4], ≥ 98%; in data set [5] it was ≥ 97%. In data set [1], the pest or weed control at 500 g/ha was ≥ 98%. This compound yielded a chromatographic logP in data set [2] (logP) of 3.73.
Regarding `CNC(=O)/C(=N/OC)c1ccc(F)cc1Oc1ncnc(Oc2ccccc2C)c1F` [Example 15], the pest or weed control at 100 g/ha in data set [6] was ≥ 82%; in data set [3], ≥ 86%; in data set [4], ≥ 98%; in data set [5] it was ≥ 97%. The chromatographic logP in data set [2] (logP) is 3.2.
In data set [2] (logP), `CNC(=O)/C(=N/OC)c1ccc(F)cc1Oc1ncnc(Oc2ccccc2F)c1F` [Example 16] returned a chromatographic logP of 3.03. Further, the pest or weed control at 500 g/ha in data set [7] was ≥ 98%.
`CNC(=O)/C(=N/OC)c1ccc(F)cc1Oc1ncnc(Oc2ccc(Cl)cc2)c1F` [Example 22] yielded a chromatographic logP in data set [2] (logP) of 3.32. Moreover, the pest or weed control at 500 g/ha in data set [7] was ≥ 98%.
Turning to `CNC(=O)/C(=N/OC)c1ccc(F)cc1Oc1ncnc(Oc2cccc(Cl)c2Cl)c1F` [Example 33], the pest or weed control at 100 g/ha was ≥ 82% in data set [6], ≥ 86% in data set [3], ≥ 98% in data set [4] and ≥ 97% in data set [5]. Also, the chromatographic logP in data set [2] (logP) came to 3.53.
Turning to `CNC(=O)/C(=N/OC)c1ccc(F)cc1Oc1ncnc(Oc2ccccc2OC(F)(F)F)c1F` [Example 35], the values for the pest or weed control at 100 g/ha in data set [6], in data set [4] and in data set [5] were ≥ 82%, ≥ 98% and ≥ 97%, respectively. The same compound displayed a chromatographic logP in data set [2] (logP) of 3.27.
As to `CNC(=O)/C(=N/OC)c1ccc(F)cc1Oc1nccc(OCC(F)(F)C(F)(F)F)n1` [Example 40], in data set [1], the pest or weed control at 500 g/ha is ≥ 98%. In addition, in data set [2] (logP), the chromatographic logP stood at 2.87.
For the compound `CNC(=O)/C(=N\OC)c1c(F)cccc1Oc1ccccc1` [Example 41], in data set [1], the pest or weed control at 500 g/ha was ≥ 98%. This compound displayed a chromatographic logP in data set [2] (logP) of 2.49.
The like results for `CO/N=C(\C(=O)OC)c1c(F)cccc1Oc1ncnc(Oc2cccc(Cl)c2C)c1F` [Example 42] were, in that order, ≥ 98% and 4.41.
Take `CO/N=C(\C(=O)OC)c1c(F)cccc1Oc1ccccc1` [Example 43]: in data set [1], the pest or weed control at 500 g/ha is ≥ 98%. In data set [2] (logP), this compound gave a chromatographic logP of 3.42.
Consider `CNC(=O)/C(=N/OC)c1c(F)cccc1Oc1nccc(OCC(F)(F)C(F)(F)F)n1` [Example 44], for which the pest or weed control at 500 g/ha in data set [1] is ≥ 98%. In addition, the chromatographic logP in data set [2] (logP) amounted to 2.89.
With `CO/N=C(/C(=O)OC)c1c(F)cccc1CO/N=C(\C)c1cccc(C(F)(F)F)c1` [Example 50], the pest or weed control at 100 g/ha is ≥ 82% in data set [6], ≥ 86% in data set [3], ≥ 98% in data set [4] and ≥ 97% in data set [5]. For the same compound, in data set [1], the pest or weed control at 500 g/ha was ≥ 98%. This compound also returned a chromatographic logP in data set [2] (logP) of 4.27.
For the compound `CNC(=O)/C(=N/OC)c1c(F)cccc1CO/N=C(\C)c1cccc(C(F)(F)F)c1` [Example 51], the pest or weed control at 100 g/ha in data set [6] was ≥ 82%; in data set [3] it was ≥ 86%; in data set [4], ≥ 98%; in data set [5], ≥ 97%. Also, the pest or weed control at 500 g/ha in data set [1] was ≥ 98%. The compound also showed a chromatographic logP in data set [2] (logP) of 3.71.
In data set [2] (pH 2, log P (pH 2)), `CO/N=C(/C(=O)OC)c1c(O)cccc1F` [Example (II-1), methyl (2-fluoro-6-hydroxyphenyl)methoxyiminoacetate] displayed a chromatographic logP of 1.67.
Turning to `CNC(=O)/C(=N/OC)c1c(O)cccc1F` [Example (II-2), 2-(2-fluoro-6-hydroxyphenyl)-2-methoxyimino-N-methylacetamide], the chromatographic logP in data set [2] (pH 2, log P (pH 2)) worked out at 1.18.
`CO/N=C(/C(=O)OC)c1ccc(F)cc1O` [Example (II-3), methyl (4-fluoro-2-hydroxyphenyl)methoxyiminoacetate]: in data set [2] (pH 2, log P (pH 2)), the chromatographic logP was 2.62.
In data set [2] (pH 2, log P (pH 2)), `CNC(=O)/C(=N/OC)c1ccc(F)cc1O` [Example (II-4), 2-(4-fluoro-2-hydroxyphenyl)-2-methoxyimino-N-methylacetamide] came in with a chromatographic logP of 1.56.
Same read-out and setting: next, `COC(=O)C(=O)c1c(F)cccc1OC1CCCCO1` (centres unmarked) [Example (XIII-1), methyl [2-fluoro-6-(tetrahydropyran-2-yloxy)phenyl]oxoacetate]: 2.78.
On the same count and under the same terms, next, `COC(=O)C(=O)c1ccc(F)cc1O` [Example (XIV-1), methyl (4-fluoro-2-hydroxyphenyl)oxo-acetate]: 2.1; `COC(=O)C(=O)c1c(C)cccc1F` [Example (XIX-1), methyl (2-fluoro-6-methylphenyl)oxoacetate]: 2.44.
With `CO/N=C(/C(=O)OC)c1c(C)cccc1F` [Example (XVIII-1), methyl (2-fluoro-6-methylphenyl)methoxyiminoacetate], the chromatographic logP in data set [2] (pH 2, log P (pH 2)) is 2.43. This chromatographic logP and that of the compound before are within 0.2 log units of each other.
